# ± gives the expanded uncertainty stated by the source.
# Conditions: 101.33 kPa, Liquid; for viscosity: Capillary tube (Ostwald / Ubbelohde) method; for mass density: Pycnometric method
smiles,measurement,setting,value
"OCCO [1,2-ethanediol]",viscosity,313.15 K,9.309 ± 0.11 mPa·s
same,mass density,313.15 K,1098.9 ± 1.3 kg/m3
same,viscosity,323.15 K,6.818 ± 0.079 mPa·s
same,mass density,323.15 K,1091.7 ± 1.3 kg/m3
same,viscosity,333.15 K,5.027 ± 0.059 mPa·s
same,mass density,333.15 K,1084.2 ± 1.3 kg/m3
same,viscosity,343.15 K,3.915 ± 0.046 mPa·s
same,mass density,343.15 K,1078.1 ± 1.3 kg/m3
